This is an account of results in patent US5378690A, “New renin-inhibitory oligopeptides, their preparation and their use” (Sankyo Company, Limited, priority 1986, dated 1995).

The target in this experiment is T1, human renin (Homo sapiens, UniProt P00797).
T1 sequence (P00797 67-406): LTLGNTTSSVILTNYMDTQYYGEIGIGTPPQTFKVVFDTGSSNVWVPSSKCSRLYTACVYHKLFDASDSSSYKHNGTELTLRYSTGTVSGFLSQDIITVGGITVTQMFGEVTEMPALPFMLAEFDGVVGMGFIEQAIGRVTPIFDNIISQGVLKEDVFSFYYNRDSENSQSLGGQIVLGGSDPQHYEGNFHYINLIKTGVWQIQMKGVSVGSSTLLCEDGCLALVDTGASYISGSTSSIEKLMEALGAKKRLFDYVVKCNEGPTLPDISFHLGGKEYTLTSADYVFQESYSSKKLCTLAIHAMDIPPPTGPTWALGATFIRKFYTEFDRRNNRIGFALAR
As to the kind of experiment: Inhibition of renin activity. Conditions: 1×10^-6 M of the test compound, sheep angiotensinogen, pH 7.3, 10 minutes at 37° C., mean of 3 or 4 experiments. Type of experiment: biochemical. As for the experimental part: The ability of various compounds of the invention to inhibit the activity of renin was determined according to the following method, which follows essentially the procedure of Kokubu et al. [Hypertension, 5, 191-197 (1983)].
Specifically, each test compound was dissolved in 60% v/v aqueous ethanol. Human renin activity in the presence and absence of each compound was measured using sheep angiotensinogen. The total volume of 1 ml of assay mixture contained 0.1 mole/litre phosphate buffer (pH 7.3), human renin (equivalent to 0.5 ng angiotensin I per ml per minute), sheep angiotensinogen (equivalent to 200 ng angiotensin I) 1×10^-6 M of the test compound, 6% v/v ethanol and angiotensinase inhibitors (10 mmole/litre sodium ethylenediaminetetraacetate and 3.4 mmole/litre 8-hydroxyquinoline). The mixture was allowed to react for 10 minutes at 37° C., and then the reaction was stopped by placing the reaction tube in a boiling water bath for 5 minutes. The mixture was then centrifuged and the supernatant (0.05-0.1 ml) was used to assay remaining angiotensin I.
An identical experiment was carried out, as a control, except that the test compound was omitted. From the values obtained were calculated the % inhibition of renin activity achieved by each test compound. The results are shown in the following Table 9, in which the compounds of the invention are identified by the numbers of the Examples given hereafter in which are described their preparation. The values given are the mean of 3 or 4 experiments.
Take `CC(C)CCNC(=O)C[C@H](O)[C@H](CC1CCCCC1)NC(=O)[C@H](Cc1cscn1)NC(=O)[C@H](Cc1cccc2ccccc12)NC(=O)CN1CCOCC1` [Example 108]: the “Inhibitory Activity (%)” value worked out at 98.6%.
As for `CCCCCCNC(=O)C[C@H](O)[C@H](CC1CCCCC1)NC(=O)[C@H](Cc1cscn1)NC(=O)[C@H](Cc1cccc2ccccc12)NC(=O)CN1CCOCC1` [Example 110, N-{N-[N-Morpholinoacetyl-3-(1-naphthyl)-L-alanyl]-3-(4-thiazolyl)-L-alanyl}-cyclostatin-hexylamide], the “Inhibitory Activity (%)” value is reported as 98.3%.
As for `CC(C)CCNC(=O)C[C@H](O)[C@H](CC1CCCCC1)NC(=O)[C@H](Cc1cscn1)NC(=O)[C@H](Cc1cccc2ccccc12)NC(=O)CN(C)Cc1ccccc1` [Example 111, N-{N-[N-(Benzyl-N-methylaminoacetyl)-3-(1-naphthyl)-L-alanyl]-3-(4-thiazolyl)-L-alanyl}-cyclostatin-isopentylamide], the “Inhibitory Activity (%)” value was found to be 96.0%.
On to `CCCCNC(=O)C[C@H](O)[C@H](CC1CCCCC1)NC(=O)[C@H](Cc1cscn1)NC(=O)[C@H](Cc1cccc2ccccc12)NC(=O)CN(C)C1CCCCC1` [Example 112, N-{N-[N-(N-Cyclohexyl-N-methylaminoacetyl)-3-(1-naphthyl)-L-alanyl]-3-(4-thiazolyl)-L-alanyl}-cyclostatin-butylamide], for which the “Inhibitory Activity (%)” value was 98.0%.
Regarding “N-{N-[(2R)-2-(1-Naphthylmethyl)-3-thiomorpholinocarbonylpropionyl]-3-(4-thiazolyl)-DL-alanyl}-cyclostatin-(2-morpholinoethyl)amide [Example 9]”, the “Inhibitory Activity (%)” value was determined as 94.0%.
As to “N-{N-[N-(N-Benzyl-N-ethylaminoacetyl)-3-(1-naphthyl)-L-alanyl]-L-leucyl}-cyclostatin-(2-morpholinoethyl)amide [Example 69]”, the “Inhibitory Activity (%)” value is given as 96.1%.
Take “N-{N-[N-(N-Benzyl-N-methylaminoacetyl)-3-(1-naphthyl)-L-alanyl]-L-tryptophyl}-cyclostatin-[3-(2-oxo-1-pyrrolidinyl)propyl]amide [Example 76]”: the “Inhibitory Activity (%)” value was 97.1%.
